Data taken from patent US20190018003A1, “TUMOR DISCRIMINATION METHOD, DIAGNOSTIC AGENT FOR TUMOR, AND SENSITIZER FOR TUMOR DIAGNOSIS” (TOTO LTD., priority 2017, published 2019).

Legend:
[1] = system: UM-UC-3 urinary bladder cancer cells; experiment: Fluorescence enhancement in UM-UC-3 cells by separate administration of fluorescent dye (ALA) and particles, fluorescence microscope; format: cell-based, human; settings: Example 5, ALA 2 mmol/l, particles 0.001 w/v %, immediately after observation light irradiation
Protocol: UM-UC-3 cells (UMUC3, ATCC CRL-1749) were prepared. This cell line was subcultured in an E-MEM medium (ATCC-formulated Eagle's Minimum Essential Medium (ATCC), 10 v/v % FBS (Life Technologies)). The cultured cells which reached a logarithmic growth phase 3 days or 4 days later were peeled off with Trypsin/EDTA (Thermo Fisher Scientific) and, after the reaction was terminated in an E-MEM medium, centrifuged. The cell pellet obtained was suspended in an E-MEM medium. The cell suspension was subjected to measurement of cell density, inoculated onto a 6-well plate at a density of 3.6×10^4 cells/2 ml/well, and cultured for 3 days. […]
Evaluation was performed as follows. The medium of the UM-UC-3 cells on a 6-well plate, obtained in Example 3, was removed by an aspirator, and evaluation thereof was performed under conditions where PBS (−) and HBSS (−) in Example 4 were changed to the E-MEM medium and the MEM medium (no glutamine and no phenol red (Thermo Fisher Scientific), respectively, and the solution was used for detection of fluorescence.
Detection of fluorescence was performed in the same manner as in Example 4 by using an inverted fluorescence microscope (ECLIPSE Ti-E, Nikon). A fluorescence intensity was calculated by subtracting luminance corresponding to dark noise from the image acquired and thereafter obtaining average luminance of all pixels where fluorescence was acquired. […]

[2] = system: T24 urinary bladder cancer cells; experiment: Fluorescence enhancement in T24 cells by separate administration of fluorescent dye (ALA) and particles, inverted fluorescence microscope; format: cell-based, human
Protocol: T24 cells (T24, JCRB0711) were prepared. This cell line was subcultured in an MEM medium (MEM, GlutaMAX™ supplement (Thermo Fisher Scientific), 10 v/v % FBS (Thermo Fischer Scientific)). The cultured cells which reached a logarithmic growth phase 3 days or 4 days later were peeled off with Trypsin/EDTA (Thermo Fisher Scientific) and, after the reaction was terminated in an MEM medium, centrifuged. The cell pellet obtained was suspended in an MEM medium. The cell suspension was subjected to measurement of cell density, inoculated onto a 6-well plate at a density of 3.6×10^4 cells/2 ml/well, and cultured for 3 days.
An aqueous ALA solution (50 mmol/l) was mixed into an MEM medium (MEM, GlutaMAX™ supplement (Thermo Fisher Scientific)) to form a 2 mmol/l ALA solution. Further, an aqueous solution of light scattering particles (2) (ii) was mixed into an MEM medium to form a 0.001 w/v % light scattering particle solution.
Evaluation was performed as follows. The medium of the T24 cells on a 6-well plate, obtained in Example 3, was removed by an aspirator, and thereto was added 2 ml of PBS (−) (Thermo Fisher Scientific). Once again, PBS (−) was removed by an aspirator, thereto was added 2 ml of an ALA solution, and the system was cultured for 2 hours. Then, the ALA solution on the 6-well plate was removed by an aspirator, thereto was added 2 ml of a light scattering particle solution, and the system was cultured for 2 hours. Further, the particle solution on the 6-well plate was removed by an aspirator, the residue was washed with HBSS (−) (Thermo Fisher Scientific), HBSS (−) was removed gain by an aspirator, to the residue was added 2 ml of HBSS (−), and the solution was used for observation and detection of fluorescence.
Observation and detection of fluorescence was performed by using an inverted fluorescence microscope (ECLIPSE Ti-E, Nikon). By using a halogen light source lamp and a 450 nm dichroic mirror, excitation light was irradiated through a 410 nm band pass filter of a 25 nm half-band width, and fluorescence was passed through a 600 nm long-pass filter. There were used an eyepiece of 10 times magnification and an objective lens of 20 times magnification and numerical aperture of 0.75. The irradiation aperture, exposure time, and gain were set to ND=8, 400 ms, and 14.0×, respectively. Fluorescent images were acquired by a cooling CCD color camera (DS-Fi3, Nikon) as digital images. By using an image analysis device IS-Elements AR ver.4.60 (Nikon), fluorescence was detected by subtracting luminance corresponding to dark noise from the image acquired, thereafter obtaining average luminance of all pixels where fluorescence is acquired, and calculating a fluorescence intensity. Also, the image acquired was observed visually.
Relative fluorescence intensity was calculated by using the fluorescence intensities acquired above according to the following formula:
[relative fluorescence intensity]=[fluorescence intensity under each condition]/[fluorescence intensity immediately after irradiation of observation light in the case of administration of fluorescent dye only]. […]
An aqueous ALA solution (50 mmol/l) was mixed into an MEM medium (MEM, GlutaMAX™ supplement (Thermo Fisher Scientific)) to form a 2 mmol/l ALA solution. An aqueous solution of silica particles having a particle size of 100 nm (sicastar, Silica Microsphere, Plain, 25 mg/ml, produced by Polyscience) was mixed into the MEM medium to form a 0.01 w/v % silica particle solution.
Evaluation was performed by removing the medium of the T24 cells on a 6-well plate, obtained in Example 3, under conditions where, in Example 4, PBS (−) and HBSS (−) were respectively changed to MEM medium and MEM medium (no glutamine, no phenol red (Thermo Fisher Scientific)), and the solution was used for detection of fluorescence. […]

NCC(=O)CCC(=O)O [fluorescent dye, 5-aminolevulinic acid]
Relative fluorescence intensity [1]: 1.0 | Relative fluorescence intensity ([2]; Example 4, T24, ALA 2 mmol/l 2 h, then particles 0.001 w/v % 2 h, 50 seconds after observation light irradiation): 0.4 | Relative fluorescence intensity ([2]; Example 4, T24, ALA 2 mmol/l 2 h, then particles 0.001 w/v % 2 h, 150 seconds after observation light irradiation): 0.1 | Relative fluorescence intensity ([2]; Example 4, T24, ALA 2 mmol/l 2 h, then particles 0.001 w/v % 2 h, immediately after observation light irradiation, relative to dye only immediately after irradiation): 1.0 | Relative fluorescence intensity ([2]; Example 7, T24, ALA 2 mmol/l, administration of fluorescent dye only): 1.0 | Relative fluorescence intensity ([2]; Example 10, T24 cell line, ALA 2 mmol/l, particles 0.001 w/v %): 1.0 | Relative fluorescence intensity ([2]; Example 12, T24, ALA 2 mmol/l, silica particles 0.01 w/v %, immediately after observation light irradiation): 1.0 | Relative fluorescence intensity ([2]; Example 13, T24, ALA 2 mmol/l, polystyrene particles 0.01 w/v %, immediately after observation light irradiation): 1.0 | Relative fluorescence intensity ([2]; Example 14, T24, ALA 2 mmol/l, particles 0.001 w/v %, immediately after observation light irradiation): 1.0 | Relative fluorescence intensity ([2]; Example 15, T24, ALA 2 mmol/l, particles 0.001 w/v %, immediately after observation light irradiation): 1.0
